{"source": "patent US5854240A", "about": "“Methylene blue for the treatment or prophylaxis of encephalopathy caused by ifosfamide” (Newcastle University Ventures Limited, priority 1993, dated 1998)", "key": {"[1]": {"assay": "CNS toxicity/encephalopathy in patients on ifosfamide without methylene blue", "type": "in vivo, human", "procedure": "(§1) A patient diagnosed with advanced metastatic osteosarcoma began a five day chemotherapy regime. Treatment consisted of a total dosage of 12 g/m^2 ifosfamide with 80% (by weight, based on the weight of ifosfamide) mesna and adriamycin (65 mg/m^2) divided into two doses. They also received ZOFRAN™ brand ondansetron (antiemetic), 8 mg, by intravenous injection and 200 mg pyritinol three times per day orally. All parenteral medicaments were given in a total of 2 liters 5% glucose solution.\n(§2) In 1990, a patient with metastatic leiomyosarcoma was treated for lung metastases with ifosfamide, adriamycin and dacarbazine. They had three cycles of therapy at the time.\n(§3) In the second and third cycles, their dose of ifosfamide was 2 g/m^2 for three days.\n(§4) At the request of the inventors, an independent clinical analysis was performed at the Northern Centre for Cancer Treatment, Newcastle Upon Tyne, United Kingdom, on a patient using a combintation of ifosfamide and methylene blue. A patient was diagnosed with adenocarcinoma of the oesophagus. They began chemotherapeutic treatment and was administered ifosfamide, Mitomycin C, and cisplatin. […] The patient eventually recovered. Upon administration of a third cycle of treatment, the patient was also given a prophylactic dosage of methylene blue."}, "metastatic osteosarcoma": {"tested_on": "metastatic osteosarcoma", "assay": "Tumour response to chemotherapy, osteosarcoma patient", "type": "in vivo, human", "settings": "Example 2; ifosfamide/adriamycin chemotherapy with methylene blue prophylaxis", "procedure": "as §1\n(§5) After three weeks from the end of the first cycle, the patient who was the subject of Example 1 again was given the same chemotherapeutic regime, except that this time they received 50 mg oral capsules of methylene blue prophylactically three times a day for the full course of treatment."}, "[2]": {"tested_on": "metastatic leiomyosarcoma", "assay": "Tumour response to chemotherapy, leiomyosarcoma patient", "type": "in vivo, human", "settings": "Example 3; 1990, ifosfamide, adriamycin and dacarbazine, three cycles", "procedure": "as §2, §3"}, "[3]": {"tested_on": "non small cell lung cancer", "assay": "Tumour response to chemotherapy, non small cell lung cancer patients", "type": "in vivo, human", "settings": "Example 4; ifosfamide, VP-16, methylene blue; four cycles", "procedure": "(§6) A patient was diagnosed with non small cell lung cancer. They later developed brain, lung and mediastinal and bone metastases. The course of treatment included surgery, irradiation of the brain and chemotherapy. Dosage amounts for chemotherapy were as follows: ifosfamide (1 g/m^2) given intravenously for days 1-3; mesna 60% of intravenous ifosfamide dosage plus 800 mg orally twice daily for days 1-3; VP-16 (100 mg) given orally for days 1-8 and methylene blue (50 mg) was administered orally as a loading dose on day 1, with 3×50 mg administered orally on days 1-4.\n(§7) A patient was diagnosed with non small cell lung cancer with extensive mediastinal lymphnode metastases. They were originally prescribed a course of cisplatinum, VP-16 and velbe. […] Oral ifosfamide, VP-16, and methylene blue was then ordered, using the same dosage requirements as described in Example 4 above."}, "small cell lung cancer": {"tested_on": "small cell lung cancer", "assay": "Tumour response to chemotherapy, small cell lung cancer patients", "type": "in vivo, human", "from_the_text": "(§8) They received six cycles of ifosfamide treatment using the identical dosage requirements as in Example 4.\n(§9) A patient was diagnosed with extensive small cell lung cancer with pleural effusion. Patient was prescribed ifosfamide/Vp-16/methylene blue treatment."}, "[4]": {"assay": "Nitrobenzyl pyridine (NBP) test of urine for alkylating metabolites of ifosfamide", "type": "in vivo, human"}, "[5]": {"assay": "GCMS analysis of urine of patient receiving ifosfamide and methylene blue", "type": "in vivo, human", "procedure": "100 ml of urine from a patient having had received methylene blue (300 mg/day) and ifosfamide (3 mg/kg daily) was analysed. The urine was refluxed for 30 minutes with 2M hydrochloric acid in ethanol (50 ml). After sufficient heating, 50 mls each of H2 O and […] hexane were added, the mixture shaken. The organic phase was then reduced to dryness in vacuo on a rotary evaporator. The dry residue was reconstituted in 1M hexane (10 ml) and 1 μl aliquots were submitted to gas chromatography-mass spectrometry analysis (GCMS). A 16 meter OV-17 capillary column was used with a temperature programme set for 40° C. for 1 minute, 5° C. per minute gradient to 250° C. and 250° C. for 10 minutes. Electron impact mass spectra were obtained on the resulting chromatographic peaks of interest (See A, B, and C of FIG. 1). These peaks were analysed through a Fisons Autospec Q MASS LIB GCMS computer library of mass spectra developed by the Department of Organic Chemistry, University of Berne, Switzerland of known organic compounds (FIGS. 2-4)."}, "[6]": {"settings": "intravenous ifosfamide; Martindale, 28th Edition, 1982; cited from earlier work"}, "plasma amine oxidase": {"tested_on": "plasma amine oxidase", "assay": "Inhibition of plasma amine oxidase (2-chlorethylamine oxidation to chloracetaldehyde, GC)", "type": "biochemical", "settings": "methylene blue 50 μM; 2-chlorethylamine 100 μg/ml; human or bovine plasma, 36° C., 1 hour", "procedure": "Human or bovine plasma (2.0 ml) containing 2-chlorethylamine (100 μg/ml) was incubated in a shaking water bath at 36° C. for 1 hour. Aliquots (5 μl) were directly injected in to a Tenax packed gas chromatographic column maintained at 120° C. in a Perkin Elmer 3920B gas chromatograph. The product of 2-chlorethylamine oxidation by plasma amine oxidase, 2-chloracetaldehyde, was eluted at 9 minutes retention time. External calibration curves were used to determine concentrations of resulting chloracetaldehyde. […] The methylene blue is thus able to reduce the formation of chloracetaldehyde from 2-chlorethylamine by the plasma to 20% of that observed in the absence of methylene blue."}, "[7]": {"assay": "Therapeutic rescue of ifosfamide encephalopathy with methylene blue in a patient", "type": "in vivo, human", "settings": "Example 1", "procedure": "as §1\n50 mg methylene blue, formulated at 2% w/v in water for injections, was administered by slow intravenous injection.\nAbout 4 hours later, the 50 mg methylene blue dose was repeated to consolidate the earlier treatment."}, "[8]": {"assay": "Prophylaxis of ifosfamide encephalopathy with methylene blue in patients", "type": "in vivo, human", "procedure": "as §5\nWith the following treatment, they received four 50 mg doses of oral methylene blue. Their cytotoxic chemotherapy comprised three 3.2 g doses of ifosfamide (6 g/m^2 total dose) split over 3 days. The ifosfamide was administered as a continuous infusion with mesna. They also received 50 mg/m^2 adriamycin in two separate doses on days 2 and 3. Additionally,they received pyritinol (200 mg) twice per day on each day of the four day treatment.\nas §6, §8, §7\nA patient with non small cell lung cancer with involvment of the thoracic wall and retroperitoneal disease began one cycle of ifosfamide/methylene blue chemotherapy.\nas §9, §4"}, "[9]": {"assay": "Urinary excretion of pyritinol and its metabolites in patients", "type": "in vivo, human", "from_the_text": "It is believed that pyritinol elevates intracellular thiol concentrations thereby detoxifying the chloroethyl metabolites formed by ifosfamide. Pyritinol is metabolised by reduction of its centralised disulfide bond, presumably by glutathione reductase or a similar enzyme using GSH as its cofactor. Pyritinol is also known to be metabolised by S-methylation and S-oxidation into the following metabolites: [drawing 12] These metabolites are the excretable forms of pyritinol in urine. In patients not receiving ifosfamide treatment, virtually 100% of pyritinol will be excreted in its metabolised form into the urine. […] As was previously mentioned, without GSH as a cofactor, glutathione reductase is unable to reduce pyritinol into its metabolised form. It is therefore a further aspect of this invention to use the excretion of unmetabolised pyritinol as a biochemical marker for the onset of encephalopathy upon administration of ifosfamide."}, "[10]": {"settings": "Example 5, ifosfamide as in Example 4, six cycles"}, "[11]": {"settings": "Example 3, ifosfamide + methylene blue, first cycle"}}, "note": "“And” between values parts separate entries of the source, which are not always exact repeats. Equal values may be shown once. “Also recorded” adds a separate entry of the source."}
{"smiles": "O=P1(NCCCl)OCCCN1CCCl", "note": "(stereo not drawn) [ifosfamide, N,3-bis(2-chloroethyl)tetrahydro-2H-1,3,2-oxazaphosphorin-2-amine 2-oxide]", "values": [{"measurement": "signs of encephalopathy on ifosfamide", "setting": "[1]; Example 1, 12 g/m^2 total ifosfamide, mesna, adriamycin, day three and next morning, before methylene blue", "result": "displayed signs of encephalopathy-type hallucinations; also recorded: still drowsy, disorientated and confused"}, {"measurement": "encephalopathy on ifosfamide", "setting": "[1]; Example 3, 1990, first cycle, ifosfamide, adriamycin and dacarbazine", "result": "mild encephalopatic signs (such as confusion and amnesia) short of psychosis"}, {"measurement": "encephalopathy on ifosfamide", "setting": "[1]; Example 3, 1990, second cycle, ifosfamide 2 g/m^2 for three days", "result": "psychotic and somnolent"}, {"measurement": "encephalopathy on ifosfamide", "setting": "[1]; Example 3, 1990, third cycle, ifosfamide 2 g/m^2 for three days", "result": "severely psychotic and had hallucinations which continued not only after the end of the cycle but also after discharge from hospital"}, {"measurement": "encephalopathy on ifosfamide", "setting": "[1]; Example 9, ifosfamide, Mitomycin C and cisplatin, following second cycle", "result": "developed ifosfamide encephalopathy, becoming drowsy and confused"}, {"measurement": "lung metastases (lung scan)", "setting": "metastatic osteosarcoma", "result": "lung metastases were almost gone"}, {"measurement": "remission", "setting": "[2]", "result": "complete remission of the lung metastases"}, {"measurement": "outcome", "setting": "[3]", "result": "died 6 months later due to tumour progression"}, {"measurement": "Lambert/Eaton Syndrome", "setting": "small cell lung cancer; [10]", "result": "rapidly improved"}, {"measurement": "remission", "setting": "small cell lung cancer; [10]", "result": "good partial remission"}, {"measurement": "remission", "setting": "small cell lung cancer; Example 8, ifosfamide/Vp-16/methylene blue, after six cycles", "result": "partial remission of the lung, lymphnode and liver metastases"}, {"measurement": "remission", "setting": "small cell lung cancer; Example 8, ifosfamide/Vp-16/methylene blue, after three cycles", "result": "partial remission in the primary and lymphnode metastases"}, {"measurement": "NBP test of urine for alkylating metabolites of ifosfamide", "setting": "[4]; Example 1, first cycle", "result": "positive"}, {"measurement": "NBP test of urine for alkylating metabolites", "setting": "[4]; Example 2, second cycle, with methylene blue", "result": "present"}, {"measurement": "urinary metabolites identified by GCMS", "setting": "[5]; Example 10, methylene blue 300 mg/day and ifosfamide 3 mg/kg daily, urine refluxed with HCl in ethanol", "result": "2,2,2-trichlorethanal and 3-chloroproprionic acid ethyl ester and trichloracetic acid ethyl ester"}, {"measurement": "novel urinary metabolites among patients treated with ifosfamide and methylene blue", "setting": "[5]; patients treated with both ifosfamide and methylene blue", "result": "2,2,2-trichlorethanol and trichloracetic acid and 3-chlorproprionic acid"}, {"measurement": "patients experiencing CNS side effects, especially confusion and lethargy", "setting": "[6]", "result": "about 10%"}]}
{"smiles": "CN(C)c1ccc2nc3ccc(N(C)C)cc3[s+]c2c1.[Cl-]", "note": "[methylene blue, 3,7-bis(dimethylamino)phenothiazin-5-ium chloride]", "values": [{"measurement": "formation of chloracetaldehyde from 2-chlorethylamine by the plasma, relative to that in absence of methylene blue", "setting": "plasma amine oxidase", "result": 20, "unit": "%"}, {"measurement": "inhibition of plasma amine oxidase by methylene blue", "setting": "plasma amine oxidase", "result": 80, "unit": "%"}, {"measurement": "symptoms of encephalopathy next day", "setting": "[7]; 50 mg dose repeated about 4 hours later, next day", "result": "no signs of confusion or other symptoms of encephalopathy"}, {"measurement": "malaise and nausea after methylene blue", "setting": "[7]; 50 mg slow intravenous injection, after 1 hour", "result": "The malaise and nausea which they had previously experienced were gone"}, {"measurement": "patient's condition after methylene blue", "setting": "[7]; 50 mg slow intravenous injection, after 1 hour, continued ifosfamide infusion", "result": "much calmer, coherent and able to articulate the fearful nature of their hallucinations"}, {"measurement": "sleep/condition after repeated dose", "setting": "[7]; second 50 mg dose, that night and next day", "result": "slept well and was much better the next day"}, {"measurement": "disturbed nights during treatment", "setting": "[8]; Example 2, 50 mg oral capsules three times a day prophylactically", "result": "no disturbed nights"}, {"measurement": "symptoms of encephalopathy during prophylactic treatment", "setting": "[8]; Example 3, four 50 mg oral doses, ifosfamide 6 g/m^2 total over 3 days, mesna, adriamycin, pyritinol, first cycle", "result": "no symptoms of encephalopathy were recorded during treatment"}, {"measurement": "episodes of vomiting", "setting": "[8]; [11]", "result": "one"}, {"measurement": "malaise", "setting": "[8]; [11]", "result": "no malaise"}, {"measurement": "signs of encephalopathy during prophylactic treatment", "setting": "[8]; Example 4, 50 mg oral loading dose day 1, 3×50 mg oral days 1-4, four cycles", "result": "No signs of encephalopathy after four cycles"}, {"measurement": "signs of encephalopathy during prophylactic treatment", "setting": "[8]; Example 5, dosage as in Example 4, six cycles", "result": "no signs of encephalopathy"}, {"measurement": "signs of encephalopathy during prophylactic treatment", "setting": "[8]; Example 6, oral ifosfamide, VP-16 and methylene blue, dosage as in Example 4, six cycles", "result": "Absolutely no signs of encephalopathy"}, {"measurement": "CNS toxicity during prophylactic treatment", "setting": "[8]; Example 7, dosage as in Example 4, one cycle", "result": "No CNS toxicity was exhibited"}, {"measurement": "symptoms associated with encephalopathy during prophylactic treatment", "setting": "[8]; Example 8, dosage as in Examples 4-7, six cycles", "result": "never developed the symptoms associated with encephalopathy"}, {"measurement": "signs of encephalopathy during prophylactic treatment", "setting": "[8]; Example 9, prophylactic methylene blue in third cycle, ifosfamide, Mitomycin C, cisplatin", "result": "no further signs of encephalopathy"}, {"measurement": "patient's condition during prophylactic treatment", "setting": "[8]; Example 9, third cycle", "result": "remained conscious and alert throughout treatment"}]}
{"smiles": "Cc1ncc(CSSCc2cnc(C)c(O)c2CO)c(CO)c1O", "note": "[pyritinol]", "values": [{"measurement": "form of pyritinol excreted in urine upon addition of methylene blue", "setting": "[9]; ifosfamide plus methylene blue, leucomethylene blue or similar compound", "result": "metabolised forms of pyritinol will subsequently be excreted in the urine"}, {"measurement": "form of pyritinol excreted in urine upon ifosfamide", "setting": "[9]; upon administration of ifosfamide", "result": "solely in its unmetabolised non-reduced form"}]}
